We go through twelve compounds from patent US10160747B2, “Compounds and methods for kinase modulation, and indications therefor” (Plexxikon Inc., priority 2016, dated 2018).

T1 sequence (P10721 26-976): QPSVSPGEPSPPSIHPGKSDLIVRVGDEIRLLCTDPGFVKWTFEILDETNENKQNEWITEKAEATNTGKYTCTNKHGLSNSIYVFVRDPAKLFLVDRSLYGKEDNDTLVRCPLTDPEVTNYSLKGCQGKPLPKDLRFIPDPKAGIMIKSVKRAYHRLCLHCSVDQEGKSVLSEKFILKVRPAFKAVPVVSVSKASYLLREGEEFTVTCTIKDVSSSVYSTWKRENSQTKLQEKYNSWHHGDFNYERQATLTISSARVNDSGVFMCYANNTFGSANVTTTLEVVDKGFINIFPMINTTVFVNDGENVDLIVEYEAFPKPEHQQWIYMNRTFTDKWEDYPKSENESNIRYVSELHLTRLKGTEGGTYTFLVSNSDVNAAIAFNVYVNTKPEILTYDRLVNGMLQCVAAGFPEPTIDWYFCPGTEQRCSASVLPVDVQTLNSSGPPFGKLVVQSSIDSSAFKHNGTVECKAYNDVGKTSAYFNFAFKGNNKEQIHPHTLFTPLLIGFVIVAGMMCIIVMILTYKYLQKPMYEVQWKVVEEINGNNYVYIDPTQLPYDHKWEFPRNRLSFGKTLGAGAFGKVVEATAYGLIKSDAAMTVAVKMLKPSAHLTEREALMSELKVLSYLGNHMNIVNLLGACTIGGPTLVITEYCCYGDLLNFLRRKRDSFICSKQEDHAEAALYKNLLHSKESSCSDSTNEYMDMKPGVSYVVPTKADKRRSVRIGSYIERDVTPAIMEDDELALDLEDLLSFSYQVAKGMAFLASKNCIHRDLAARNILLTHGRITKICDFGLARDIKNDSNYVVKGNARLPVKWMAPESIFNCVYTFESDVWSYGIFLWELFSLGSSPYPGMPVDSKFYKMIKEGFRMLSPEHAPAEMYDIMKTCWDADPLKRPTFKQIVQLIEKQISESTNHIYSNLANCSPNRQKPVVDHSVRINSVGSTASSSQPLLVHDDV

The first assay addresses T1, c-KIT (Homo sapiens, UniProt P10721).
T1 construct: purchased Millipore 14-559K
In words: c-KIT recombinant enzyme kinase assay (AlphaScreen). The note with it: 100 ATP, 8 pt. It counts as biochemical. The protocol: (§1) In order to determine the effect of compounds on FLT3 catalytic activity, kinase assays using recombinant enzymes and AlphaScreen® technology have been established. The catalytic activity of c-kit activity was also measured to determine selectivity of the compounds. When the kinases are catalytically active, they phosphorylate a biotinylated peptide substrate on tyrosine residues. Using AlphaScreen® technology, the ability of the compounds to affect the catalytic activity of the kinases can be measured quantitatively. The peptide substrate is immobilized by the AlphaScreen® Streptavidin Donor beads and, upon phosphorylation by a tyrosine kinase, can bind to AlphaScreen® Anti-Phosphotyrosine (PY20) Acceptor beads. Upon excitation of these beads with laser light at 680 nm, singlet oxygen is produced. This singlet oxygen is rapidly quenched, unless the AlphaScreen® Anti-Phosphotyrosine (PY20) Acceptor beads are in close proximity, in which case a proximity signal can be measured at 580 nm. In the presence of catalytic activity, there is a very strong proximity signal. Selective kinase inhibitors affect a decrease in this proximity signal through a decrease in tyrosine phosphorylation of the peptide substrate.
(§2) The assay was performed as summarized below.
(§3) Poly (Glu4-Tyr) Peptide, biotin conjugate [Biotin-GG(EEEEY)10EE] (SEQ ID NO: 4)
(§4) Final concentration=30 nM
(§5) Adenosine Triphosphate (ATP)
(§6) Final concentration for IC50 determination=10 μM (FLT3-D835Y or FLT3-ITD) or 100 μM (c-KIT)
(§7) AlphaScreen® Phosphotyrosine (PY20) Assay Kit
(§8) Final concentration=10 μg/mL
(§9) Dilute compounds in DMSO to 20× final concentration.
(§10) Add 1 μL of compound to each well of 384 well reaction plate (Perkin Elmer #6005359).
(§11) Mix enzyme and Poly (Glu4-Tyr) Peptide substrate at 1.33× final concentration in assay buffer.
(§12) Mix ATP at 5× final concentration in assay buffer.
(§13) Add 15 μL enzyme/substrate mixture to the reaction plate.
(§14) Add 4 μL of ATP to the reaction plate.
(§15) Mix Streptavidin Donor beads at 6× final concentration in Stop/Detection buffer.
(§16) Add 5 μL Streptavidin Donor beads to the reaction plate. Centrifuge 1 minute, shake to mix, and incubate at room temperature for 20 minutes.
(§17) Mix Anti-Phosphotyrosine (PY20) Acceptor beads at 6× final concentration in Stop/Detection buffer.
(§18) Add 5 μL Anti-Phosphotyrosine (PY20) beads to the reaction plate.
(§19) Centrifuge 1 minute, shake to mix, and incubate at room temperature for 60 minutes.
(§20) Read plate on Wallac EnVision™ 2103 Multilabel Reader.
In general terms: In Alpha technology, singlet oxygen from a donor bead excites a nearby acceptor bead.
With `Cn1cc(Nc2ncc(-c3ccc(CC(=O)Nc4cccc(OC(F)(F)F)c4)cc3)cn2)cn1` [Compound P-0157, 2-[4-[2-[(1-methylpyrazol-4-yl)amino]pyrimidin-5-yl]phenyl]-N-[3-(trifluoromethoxy)phenyl]acetamide], the concentration for half-maximal inhibition (IC50) (in general, the midpoint of a concentration-inhibition curve) is 0.0001 to 10 µM.
Consider `N#Cc1cc(-c2cc3cc(-c4ccc(CC(=O)Nc5cncc(C(F)(F)F)c5)cc4F)cnc3[nH]2)ccn1` [Compound P-0199, 2-[4-[2-(2-cyano-4-pyridyl)-1H-pyrrolo[2,3-b]pyridin-5-yl]-3-fluoro-phenyl]-N-[5-(trifluoromethyl)-3-pyridyl]acetamide], for which the half-inhibitory concentration (IC50) fell in the range of 0.0001 to 10 µM.
Same read-out and setting: under `COc1cc(NC(=O)Cc2ccc(-c3cnc(Nc4cnn(C)c4)nc3)cc2)ccn1` [Compound P-0153, N-(2-methoxy-4-pyridyl)-2-[4-[2-[(1-methylpyrazol-4-yl)amino]pyrimidin-5-yl]phenyl]acetamide] stands 0.0001 to 10 µM.
The same measure, in the same setting: next, `COc1ccccc1CNC(=O)Cc1ccc(-c2cnc(Nc3cnn(C)c3)nc2)cc1` [Compound P-0160, N-[(2-methoxyphenyl)methyl]-2-[4-[2-[(1-methylpyrazol-4-yl)amino]pyrimidin-5-yl]phenyl]acetamide]: 0.0001 to 10 µM; `Cn1cc(Nc2ncc(-c3ccc(CC(=O)NCc4ncccc4C(F)(F)F)cc3)cn2)cn1` [Compound P-0159, 2-[4-[2-[(1-methylpyrazol-4-yl)amino]pyrimidin-5-yl]phenyl]-N-[[3-(trifluoromethyl)-2-pyridyl]methyl]acetamide]: 0.0001 to 10 µM.
Take `Cn1cc(Nc2ncc(-c3ccc(CC(=O)NCc4cccnc4)cc3)cn2)cn1` [Compound P-0132, 2-[4-[2-[(1-methylpyrazol-4-yl)amino]pyrimidin-5-yl]phenyl]-N-(3-pyridylmethyl)acetamide]: the 50% inhibitory concentration (IC50) lay within 0.0001 to 10 µM.

The next assay addresses T2, FLT3-D835Y (Homo sapiens, UniProt P36888, D835Y).
T2 construct: purchased Invitrogen PV3967
T2 sequence (P36888 27-993 D835Y): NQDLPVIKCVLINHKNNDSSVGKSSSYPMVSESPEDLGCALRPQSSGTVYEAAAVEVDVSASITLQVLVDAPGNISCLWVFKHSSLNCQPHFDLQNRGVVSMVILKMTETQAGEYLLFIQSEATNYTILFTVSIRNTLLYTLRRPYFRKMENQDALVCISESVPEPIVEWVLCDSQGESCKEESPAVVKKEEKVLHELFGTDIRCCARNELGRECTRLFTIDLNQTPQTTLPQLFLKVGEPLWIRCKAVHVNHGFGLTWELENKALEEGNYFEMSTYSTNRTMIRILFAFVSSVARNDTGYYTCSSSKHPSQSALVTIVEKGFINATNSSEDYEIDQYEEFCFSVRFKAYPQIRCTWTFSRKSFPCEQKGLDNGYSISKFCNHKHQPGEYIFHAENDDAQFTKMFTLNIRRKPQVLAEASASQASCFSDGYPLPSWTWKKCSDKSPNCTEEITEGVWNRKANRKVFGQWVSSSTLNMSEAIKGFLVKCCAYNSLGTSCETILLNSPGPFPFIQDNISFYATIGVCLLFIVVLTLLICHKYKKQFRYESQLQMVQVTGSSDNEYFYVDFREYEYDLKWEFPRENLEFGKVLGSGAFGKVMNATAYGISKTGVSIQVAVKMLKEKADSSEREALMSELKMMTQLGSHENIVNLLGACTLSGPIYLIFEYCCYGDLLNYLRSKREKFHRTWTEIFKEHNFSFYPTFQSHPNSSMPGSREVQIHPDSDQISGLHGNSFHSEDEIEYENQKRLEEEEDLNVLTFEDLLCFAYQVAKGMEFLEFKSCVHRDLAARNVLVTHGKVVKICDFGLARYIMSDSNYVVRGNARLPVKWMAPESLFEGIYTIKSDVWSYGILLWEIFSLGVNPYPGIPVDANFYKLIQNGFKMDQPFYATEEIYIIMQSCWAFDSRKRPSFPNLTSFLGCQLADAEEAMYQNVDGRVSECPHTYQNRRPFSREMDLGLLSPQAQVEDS
In words: FLT3-D835Y recombinant enzyme kinase assay (AlphaScreen). It counts as biochemical. As to conditions: 8 pt, GMean. The protocol:
as §1, §2, §3, §4, §5, §6, §7, §8, §9, §10, §11, §12, §13, §14, §15, §16, §17, §18, §19, §20
Regarding `Cn1cc(Nc2ncc(-c3ccc(CC(=O)Nc4cccc(OC(F)(F)F)c4)cc3)cn2)cn1` [Compound P-0157, 2-[4-[2-[(1-methylpyrazol-4-yl)amino]pyrimidin-5-yl]phenyl]-N-[3-(trifluoromethoxy)phenyl]acetamide], the IC50 was in the range of 0.0001 to 10 µM.
Same read-out and setting: under `Cc1ncc(NC(=O)Cc2ccc(-c3cnc4[nH]nc(C)c4c3)c(F)c2)cc1C(F)(F)F` [Compound P-0172, 2-[3-fluoro-4-(3-methyl-1H-pyrazolo[3,4-b]pyridin-5-yl)phenyl]-N-[6-methyl-5-(trifluoromethyl)-3-pyridyl]acetamide] stands 0.0001 to 10 µM; under `O=C(Cc1ccc(-c2cnc3[nH]c(-c4cnn(C(F)F)c4)cc3c2)c(F)c1)Nc1cncc(C(F)(F)F)c1` [Compound P-0197, 2-[4-[2-[1-(difluoromethyl)pyrazol-4-yl]-1H-pyrrolo[2,3-b]pyridin-5-yl]-3-fluoro-phenyl]-N-[5-(trifluoromethyl)-3-pyridyl]acetamide], 0.0001 to 10 µM; under `Cn1cc(Nc2ncc(-c3ccc(CC(=O)Nc4cc(Cl)c(C5CC5)cn4)cc3)cn2)cn1` [Compound P-0164, N-(4-chloro-5-cyclopropyl-2-pyridyl)-2-[4-[2-[(1-methylpyrazol-4-yl)amino]pyrimidin-5-yl]phenyl]acetamide], 0.0001 to 10 µM.
Same read-out and setting: next, `O=C(Cc1ccc(-c2cnc3[nH]c(-c4ccccc4)cc3c2)c(F)c1)Nc1cccc(C(F)(F)F)c1` [Compound P-0003, 2-[3-fluoro-4-(2-phenyl-1H-pyrrolo[2,3-b]pyridin-5-yl)phenyl]-N-[3-(trifluoromethyl)phenyl]acetamide]: 0.0001 to 10 µM.
As to `O=C(Cc1ccc(-c2cnc3[nH]c(-c4ccccc4)cc3c2)cc1F)Nc1ccnc(C(F)(F)F)c1` [Compound P-0004, 2-[2-fluoro-4-(2-phenyl-1H-pyrrolo[2,3-b]pyridin-5-yl)phenyl]-N-[2-(trifluoromethyl)-4-pyridyl]acetamide], the IC50 was in the range of 0.0001 to 10 µM.
Same read-out and setting: next, `O=C(Cc1ccc(-c2cnc3[nH]c(-c4ccc(N5CCOCC5)nc4)cc3c2)c(F)c1)Nc1cc(C(F)(F)F)ccn1` [Compound P-0192, 2-[3-fluoro-4-[2-(6-morpholino-3-pyridyl)-1H-pyrrolo[2,3-b]pyridin-5-yl]phenyl]-N-[4-(trifluoromethyl)-2-pyridyl]acetamide]: 0.0001 to 10 µM.
